Tested on: HCV 1b-377-neo replicon cells
Assay: HCV replicon assay, HCV 1b-377-neo replicon cells (1b FRET)
Type: cell-based, Hepatitis C virus genotype 1b
Conditions: Hepatitis C virus, HCV 1b-377-neo replicon cells; HCV 1b genotype; read-out: EC50 range against HCV 1b (Table 2, Range)
Summary of the method: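 Compounds tested in HCV genotype 1b-377-neo replicon cells with a FRET read-out. Cells resistant to a reference NS5A inhibitor through a Y2065H NS5A mutation were run alongside wild-type cells.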

## COC(=O)N[C@@H](C)C(=O)N1CCC[C@H]1c1ncc(-c2ccc(-c3ccc(-c4cnc([C@@H]5CCCN5C(=O)[C@@H](NC(=O)OC)C(C)C)[nH]4)cc3)cc2F)[nH]1 [Example D41, methyl ((1S)-1-(((2S)-2-(5-(3′-fluoro-4′-(2-((2S)-1-(N-(methoxycarbonyl)-L-alanyl)-2-pyrrolidinyl)-1H-imidazol-5-yl)-4-biphenylyl)-1H-imidazol-2-yl)-1-pyrrolidinyl)carbonyl)-2-methylpropyl) carbamate]
  EC50: 0.001 to 0.999 nM

## CCN(CC)[C@H](C)C(=O)N1CCC[C@H]1c1ncc(-c2ccc(-c3ccc(-c4cnc([C@@H]5CCCN5C(=O)[C@@H](NC(=O)OC)C(C)C)[nH]4)cc3)cc2F)[nH]1 [Example D43, methyl ((1S)-1-(((2S)-2-(5-(4′-(2-((2S)-1-(N,N-diethyl-D-alanyl)-2-pyrrolidinyl)-1H-imidazol-5-yl)-3′-fluoro-4-biphenylyl)-1H-imidazol-2-yl)-1-pyrrolidinyl)carbonyl)-2-methylpropyl) carbamate]
  EC50: 0.001 to 0.999 nM

## CCN(CC)[C@@H](C(=O)N1CCC[C@H]1c1ncc(-c2ccc(-c3ccc(-c4cnc([C@@H]5CCCN5C(=O)[C@@H](NC(=O)OC)C(C)C)[nH]4)cc3)cc2F)[nH]1)c1ccccc1 [Example D44, methyl ((1S)-1-(((2S)-2-(5-(4′-(2-((2S)-1-((2R)-2-(diethylamino)-2-phenylacetyl)-2-pyrrolidinyl)-1H-imidazol-5-yl)-3′-fluoro-4-biphenylyl)-1H-imidazol-2-yl)-1-pyrrolidinyl)carbonyl)-2-methylpropyl) carbamate]
  EC50: 0.001 to 0.999 nM

## COC(=O)N[C@@H](C)C(=O)N1CCC[C@H]1c1ncc(-c2ccc(-c3ccc(-c4cnc([C@@H]5CCCN5C(=O)[C@H](C)NC(=O)OC)[nH]4)c(F)c3)cc2)[nH]1 [Example D45, methyl ((1S)-2-((2S)-2-(5-(3′-fluoro-4′-(2-((2S)-1-(N-(methoxycarbonyl)-L-alanyl)-2-pyrrolidinyl)-1H-imidazol-5-yl)-4-biphenylyl)-1H-imidazol-2-yl)-1-pyrrolidinyl)-1-methyl-2-oxoethyl)carbamate]
  EC50: 0.001 to 0.999 nM

## COC(=O)N[C@@H](C(=O)N1CCC[C@H]1c1ncc(-c2ccc(-c3ccc(-c4cnc([C@@H]5CCCN5C(=O)[C@H](NC(=O)OC)c5ccccc5)[nH]4)c(F)c3)cc2)[nH]1)c1ccccc1 [Example D46, dimethyl ((3-fluoro-4,4′-biphenyldiyl)bis(1H-imidazole-5,2-diyl(2S)-2,1-pyrrolidinediyl((1R)-2-oxo-1-phenyl-2,1-ethanediyl))) biscarbamate]
  EC50: 0.001 to 0.999 nM

## CCN(CC)[C@@H](C(=O)N1CCC[C@H]1c1ncc(-c2ccc(-c3ccc(-c4cnc([C@@H]5CCCN5C(=O)[C@@H](c5ccccc5)N(CC)CC)[nH]4)c(F)c3)cc2)[nH]1)c1ccccc1 [Example D47, (1R,1′R)-2,2′-((3-fluoro-4,4′-biphenyldiyl)bis(1H-imidazole-5,2-diyl(2S)-2,1-pyrrolidinediyl))bis (N,N-diethyl-2-oxo-1-phenylethanamine)]
  EC50: 0.001 to 0.999 nM

## CCN(CC)[C@H](C)C(=O)N1CCC[C@H]1c1ncc(-c2ccc(-c3ccc(-c4cnc([C@@H]5CCCN5C(=O)[C@H](NC(=O)OC)c5ccccc5)[nH]4)cc3)cc2F)[nH]1 [Example D48, methyl ((1R)-2-((2S)-2-(5-(4′-(2-((2S)-1-(N,N-diethyl-D-alanyl)-2-pyrrolidinyl)-1H-imidazol-5-yl)-3′-fluoro-4-biphenylyl)-1H-imidazol-2-yl)-1-pyrrolidinyl)-2-oxo-1-phenylethyl)carbamate]
  EC50: 0.001 to 0.999 nM

## CCN(CC)[C@@H](C(=O)N1CCC[C@H]1c1ncc(-c2ccc(-c3ccc(-c4cnc([C@@H]5CCCN5C(=O)[C@@H](NC(=O)OC)C5CC5)[nH]4)c(F)c3)cc2)[nH]1)c1ccccc1 [Example D49, methyl ((1S)-1-cyclopropyl-2-((2S)-2-(5-(4′-(2-((2S)-1-((2R)-2-(diethylamino)-2-phenylacetyl)-2-pyrrolidinyl)-1H-imidazol-5-yl)-3-fluoro-4-biphenylyl)-1H-imidazol-2-yl)-1-pyrrolidinyl)-2-oxoethyl)carbamate]
  EC50: 0.001 to 0.999 nM

## COC(=O)N[C@H](C(=O)N1CCC[C@H]1c1ncc(-c2ccc(-c3ccc(-c4cnc([C@@H]5CCCN5C(=O)[C@@H](NC(=O)OC)C5CC5)[nH]4)c(F)c3)cc2)[nH]1)C(C)C [Example D50, methyl ((1S)-1-cyclopropyl-2-((2S)-2-(5-(3-fluoro-4′-(2-((2S)-1-(N-(methoxycarbonyl)-L-valyl)-2-pyrrolidinyl)-1H-imidazol-5-yl)-4-biphenylyl)-1H-imidazol-2-yl)-1-pyrrolidinyl)-2-oxoethyl)carbamate]
  EC50: 0.001 to 0.999 nM

## COC(=O)N[C@@H](C)C(=O)N1CCC[C@H]1c1ncc(-c2ccc(-c3cc(F)c(-c4cnc([C@@H]5CCCN5C(=O)[C@H](C)NC(=O)OC)[nH]4)cc3F)cc2)[nH]1 [Example D52, methyl ((1S)-2-((2S)-2-(5-(2′5′-difluoro-4′-(2-((2S)-1-(N-(methoxycarbonyl)-L-alanyl)-2-pyrrolidinyl)-1H-imidazol-5-yl)-4-biphenylyl)-1H-imidazol-2-yl)-1-pyrrolidinyl)-1-methyl-2-oxoethyl)carbamate]
  EC50: 0.001 to 0.999 nM

## COC(=O)N[C@@H](C(=O)N1CCC[C@H]1c1ncc(-c2ccc(-c3cc(F)c(-c4cnc([C@@H]5CCCN5C(=O)[C@H](NC(=O)OC)c5ccccc5)[nH]4)cc3F)cc2)[nH]1)c1ccccc1 [Example D53, dimethyl ((2,5-difluoro-4,4′-biphenyldiyl)bis(1H-imidazole-5,2-diyl(2S)-2,1-pyrrolidinediyl((1R)-2-oxo-1-phenyl-2,1-ethanediyl))) biscarbamate]
  EC50: 0.001 to 0.999 nM

## CCN(CC)[C@@H](C(=O)N1CCC[C@H]1c1ncc(-c2ccc(-c3cc(F)c(-c4cnc([C@@H]5CCCN5C(=O)[C@@H](c5ccccc5)N(CC)CC)[nH]4)cc3F)cc2)[nH]1)c1ccccc1 [Example D54, (1R1′R)-2,2′-((2,5-difluoro-4,4′-biphenyldiyl)bis(1H-imidazole-5,2-diyl(2S)-2,1-pyrrolidinediyl))bis (N,N-diethyl-2-oxo-1-phenylethanamine)]
  EC50: 0.001 to 0.999 nM

## COC(=O)N[C@H](C(=O)N1CCC[C@H]1c1ncc(-c2ccc(-c3ccc(-c4c[nH]c([C@@H]5CCCN5C(=O)[C@@H](NC(=O)OC)C5CC5)n4)c(F)c3)cc2F)[nH]1)C(C)C [Example D55, methyl ((1S)-1-cyclopropyl-2-((2S)-2-(5-(3,3,-difluoro-4′-(2-((2S)-1-(N-(methoxycarbonyl)-L-valyl)-2-pyrrolidinyl)-1H-imidazol-5-yl)-4-biphenylyl)-1H-imidazol-2-yl)-1-pyrrolidinyl)-2-oxoethyl)carbamate]
  EC50: 0.001 to 0.999 nM

## COC(=O)N[C@@H](C)C(=O)N1CCC[C@H]1c1ncc(-c2ccc(-c3ccc(-c4cnc([C@@H]5CCCN5C(=O)[C@@H](NC(=O)OC)C(C)C)[nH]4)c(F)c3)cc2F)[nH]1 [Example D57, methyl ((1S)-1-(((2S)-2-(5-(3,3′-difluoro-4′-(2-((2S)-1-(N-(methoxycarbonyl)-L-alanyl)-2-pyrrolidinyl)-1H-imidazol-5-yl)-4-biphenylyl)-1H-imidazol-2-yl)-1-pyrrolidinyl)carbonyl)-2-methylpropyl) carbamate]
  EC50: 0.001 to 0.999 nM

## COC(=O)N[C@H](C(=O)N1CCC[C@H]1c1ncc(-c2ccc(-c3ccc(-c4cnc([C@@H]5CCCN5C(=O)[C@@H](NC(=O)OC)C(C)C)[nH]4)c(F)c3)cc2F)[nH]1)C(C)C [Example D58, methyl ((1S)-1-(((2S)-2-(5-(3,3′-difluoro-4′-(2-((2S)-1-((2S)-2-((methoxycarbonyl)amino)-3-methylbutanoyl)-2-pyrrolidinyl)-1H-imidazol-5-yl)-4-biphenylyl)-1H-imidazol-2-yl)-1-pyrrolidinyl)carbonyl)-2-methylpropyl) carbamate]
  EC50: 0.001 to 0.999 nM

## CCN(CC)[C@H](C)C(=O)N1CCC[C@H]1c1ncc(-c2ccc(-c3ccc(-c4cnc([C@@H]5CCCN5C(=O)[C@@H](NC(=O)OC)C(C)C)[nH]4)c(F)c3)cc2F)[nH]1 [Example D59, methyl ((1S)-1-(((2S)-2-(5-(4′-(2-((2S)-1-(N,N-diethyl-D-alanyl)-2-pyrrolidinyl)-1H-imidazol-5-yl)-3,3′-difluoro-4-biphenylyl)-1H-imidazol-2-yl)-1-pyrrolidinyl)carbonyl)-2-methylpropyl) carbamate]
  EC50: 0.001 to 0.999 nM

## COC(=O)N[C@H](C(=O)N1CCC[C@H]1c1ncc(-c2ccc(-c3ccc(-c4cnc([C@@H]5CCCN5C(=O)[C@H](NC(=O)OC)c5ccccc5)[nH]4)c(F)c3)cc2F)[nH]1)C(C)C [Example D60, methyl ((1S)-1-(((2S)-2-(5-(3,3′-difluoro-4′-(2-((2S)-1-((2R)-2-((methoxycarbonyl)amino)-2-phenylacetyl)-2-pyrrolidinyl)-1H-imidazol-5-yl)-4-biphenylyl)-1H-imidazol-2-yl)-1-pyrrolidinyl)carbonyl)-2-methylpropyl) carbamate]
  EC50: 0.001 to 0.999 nM

## COC(=O)N[C@@H](C)C(=O)N1CCC[C@H]1c1ncc(-c2ccc(-c3ccc(-c4cnc([C@@H]5CCCN5C(=O)[C@H](C)NC(=O)OC)[nH]4)c(F)c3)cc2F)[nH]1 [Example D61, methyl ((1S)-2-((2S)-2-(5-(3,3,-difluoro-4′-(2-((2S)-1-(N-(methoxycarbonyl)-L-alanyl)-2-pyrrolidinyl)-1H-imidazol-5-yl)-4-biphenylyl)-1H-imidazol-2-yl)-1-pyrrolidinyl)-1-methyl-2-oxoethyl)carbamate]
  EC50: 0.001 to 0.999 nM

## COC(=O)N[C@@H](C)C(=O)N1CCC[C@H]1c1ncc(-c2ccc(-c3ccc(-c4cnc([C@@H]5CCCN5C(=O)[C@H](NC(=O)OC)c5ccccc5)[nH]4)c(F)c3)cc2F)[nH]1 [Example D62, methyl ((1R)-2-((2S)-2-(5-(3,3′-difluoro-4′-(2-((2S)-1-(N-(methoxycarbonyl)-L-alanyl)-2-pyrrolidinyl)-1H-imidazol-5-yl)-4-biphenylyl)-1H-imidazol-2-yl)-1-pyrrolidinyl)-2-oxo-1-phenylethyl)carbamate]
  EC50: 0.001 to 0.999 nM

— patent US8574563B2 (Bristol-Myers Squibb Company, priority 2006, dated 2013)
